Tested on: FPS and molecular pathways
Test: Modulation of FPS and molecular pathways in hepatic transcriptome (RNA-Seq, CES/GSEI) in CENTAUR trial biopsies
Format: in vivo, human
Details: for modulation of FPS genes: cenicriviroc arm
Description: Archived formalin-fixed liver tissues from index biopsy were used for histological assessment in all patients (FIG. 1 and Table 1A-11) to confirm no to minimal fibrosis (METAVIR fibrosis stage F0 or F1). The PLS validation set 1 (and FPS derivation set 1) is a case-control series of 43 chronic hepatitis C patients from a prior cohort study consecutively diagnosed and followed at Johns Hopkins and Massachusetts General Hospital between 1998 and 2010. Twenty-five patients were co-infected with HIV and on anti-retroviral therapies. The patients were regularly followed up with ultrasound elastography at median interval of 1.1 (IQR: 0.6-2.0) years. Liver stiffness measurement >7.0 and >9.5 kPa were regarded as indication of F2 and F3 fibrosis, respectively. The PLS validation set 2 (and FPS derivation set 2) is a case-control series of 38 patients who consecutively underwent liver transplantation for HCV-related cirrhosis and protocol liver biopsies at year 1, 2, and 5 after transplantation (and additional biopsies as needed to evaluate graft rejection, which were excluded) at Baylor University between 2002 and 2007. Median number of biopsies was 8 (IQR: 6-9) per patient with median interval between serial biopsies of 8.6 (IQR: 0.3-12.6) months. […] The FPS derivation set 3 is a cross-sectional series of 31 NAFLD patients who underwent diagnostic liver biopsy at Hiroshima University between 2003 and 2015. The FPS derivation set 4 is a cross-sectional series of 309 NAFLD patients who underwent diagnostic liver biopsy (F0 or F1 fibrosis) at Massachusetts General Hospital between 2009 and 2016. […] The cases were defined as patients who had F-stage increase of one stage or more in the follow-up biopsy. The FPS validation set 2 includes 78 patients with fibrotic liver diseases from various etiologies, for which de-identified fresh liver tissues were available from standard-care hepatic resection for organotypic ex vivo tissue culture at University of Texas Southwestern and Mount Sinai. The FPS validation set 3 consists of NASH patients with F1-F3 fibrosis who underwent liver biopsy before and after 1-year treatment with cenicriviroc (n=9) or placebo (n=10) in the phase Ilb CENTAUR trial (NCT02217475). Decrease of one or more fibrosis stage was regarded as anti-fibrotic response. The serum surrogate FPS was assessed in archived de-identified serum samples from 79 patients with chronic liver diseases. The FPSec validation set is a cohort of 122 patients with compensated (Child-Pugh class A) cirrhosis patients with mixed etiologies enrolled at University of Michigan between 2004 and 2006 as reported in our previous study. Hepatic decompensation was defined as newly developed massive ascites, hepatic encephalopathy, bleeding from gastroesophageal varices, or liver transplantation. The study was approved by institutional review board at respective institutions with written informed consent or exemption for use of archived de-identified samples (protocol numbers: STU062018-058, STU072018-071, 2010P000220/PHS, HS13-00159).
Total RNA was isolated from fixed tissue sections by using High Pure RNA Paraffin kit (Roche), and assessed for quality by qRT-PCR of RPL13A. Total RNA from the PCLS tissues was isolated using RNeasy kit (Qiagen). RNA samples (100-200 ng) were subjected to the PLS/FPS assay implemented in the nCounter platform (NanoString), and transcriptome profiling of the CENTAUR trial samples was performed by RNA-Seq (TrueSeq RNA Access, Illumina). Expression of BCL2, COL1A1, and ACTA2 genes was measured by qRT-PCR (Table 3). Serum protein profiling was performed by using xMAP assay (Luminex). […]

[1] = Fibrosis not improved, NASH patients, Hallmark set, Cellular signaling
[2] = Fibrosis not improved, NASH patients, Hallmark set, Inflammatory response, immunity
[3] = Fibrosis not improved, NASH patients, Hallmark set, Metabolism, biosynthesis
[4] = Fibrosis not improved, NASH patients, Hallmark set, Pathogenic response
[5] = Fibrosis not improved, NASH patients, Hallmark set, Sex hormone signaling
[6] = Fibrosis not improved, NASH patients, Hallmark set, Stress response
[7] = Fibrosis not improved, NASH patients, Immune cell signature (GSE65136)
[8] = Fibrosis not improved, NASH patients, Nuclear receptor signaling (curated pathway members)
[9] = Fibrosis not improved, NASH patients, PPAR agonists on mouse primary hepatocytes (GSE27948)

For `CCCCOCCOc1ccc(-c2ccc3c(c2)/C=C(/C(=O)Nc2ccc([S@@+]([O-])Cc4cncn4CCC)cc2)CCCN3CC(C)C)cc1` [Cenicriviroc], the “NES, Mitotic spindle gene set” value (Fibrosis not improved, NASH patients, Hallmark set, Cell cycle, DNA damage, response) was 0.82, the “NES, Apoptosis gene set” value (Fibrosis not improved, NASH patients, Hallmark set, Cell death) was 1.38 and the “NES, E2F targets gene set” value [1] was 1.88. For the same molecule, the “NES, Hedgehog signaling gene set” value [1] was 1.05, the “NES, KRAS signaling gene set” value [1] was 1.63 and the “NES, Myc targets v1 gene set” value [1] was 2.19. For the same molecule, the “NES, Myc targets v2 gene set” value [1] was 1.55, the “NES, Notch signaling gene set” value [1] was 0.84 and the “NES, PI3K/AKT/mTOR signaling gene set” value [1] was 1.43. For the same molecule, the “NES, TGFβ signaling gene set” value [1] was −0.70, the “NES, TNFα signaling via NF-κB gene set” value [1] was 0.96 and the “NES, Wnt/β-catenin signaling gene set” value [1] was 0.87. For the same molecule, the “NES, mTORC1 signaling gene set” value [1] was 1.93, the “NES, p53 pathway gene set” value [1] was 1.03 and the “NES, Allograft rejection gene set” value [2] was 2.25. For the same molecule, the “NES, IL2 STAT5 signaling gene set” value [2] was 1.70, the “NES, IL6 JAK STAT3 signaling gene set” value [2] was 1.82 and the “NES, Inflammatory response gene set” value [2] was 1.61. For the same molecule, the “NES, Interferon-α response gene set” value [2] was 0.83, the “NES, Interferon-γ response gene set” value [2] was 1.39 and the “NES, Adipogenesis gene set” value [3] was −0.72. For the same molecule, the “NES, Bile acid metabolism gene set” value [3] was −1.36, the “NES, Cholesterol homeostasis gene set” value [3] was 0.99 and the “NES, Coagulation gene set” value [3] was 1.33. The “NES, Complement gene set” value [3] was 1.37, the “NES, Fatty acid metabolism gene set” value [3] was 0.73 and the “NES, Glycolysis gene set” value [3] was 1.43. The “NES, Heme metabolism gene set” value [3] was −0.95, the “NES, Oxidative phosphorylation gene set” value [3] was 1.16 and the “NES, Peroxisome gene set” value [3] was −1.03. The “NES, Protein secretion gene set” value [3] was 1.30, the “NES, Xenobiotic metabolism gene set” value [3] was 0.79 and the “NES, Angiogenesis gene set” value [4] was 1.64. For the same molecule, the “NES, Epithelial mesenchymal transition gene set” value [4] was 1.98, the “NES, Androgen response gene set” value [5] was 1.63 and the “NES, Estrogen response early gene set” value [5] was 1.07. For the same molecule, the “NES, Estrogen response late gene set” value [5] was 1.18, the “NES, Hypoxia gene set” value [6] was 1.67 and the “NES, Myogenesis gene set” value [6] was 1.73. The “NES, Reactive oxygen species gene set” value [6] was 1.24, the “NES, UV response up gene set” value [6] was 1.24 and the “NES, Unfolded protein response gene set” value [6] was 1.41. The “NES, B cell (naïve) gene set” value [7] was 1.70, the “NES, CD4 T cell (naïve) gene set” value [7] was 1.93 and the “NES, CD8 T cell gene set” value [7] was 2.31. For the same molecule, the “NES, DC (activate) gene set” value [7] was 1.75, the “NES, Gamma delta T cell gene set” value [7] was 1.86 and the “NES, Macrophage (M1) gene set” value [7] was 1.70. For the same molecule, the “NES, Macrophage (M2) gene set” value [7] was 1.74, the “NES, Mast cell (active) gene set” value [7] was 1.50 and the “NES, Mast cell (rest) gene set” value [7] was 1.71. The “NES, Memory B cell gene set” value [7] was 1.67, the “NES, Memory T cell (rest) gene set” value [7] was 2.25 and the “NES, Monocyte gene set” value [7] was 1.50. For the same molecule, the “NES, NK cell (rest) gene set” value [7] was 1.76, the “NES, Neutrophil gene set” value [7] was 1.42 and the “NES, Plasma cell gene set” value [7] was 1.46. The “NES, Regulatory T cell gene set” value [7] was 1.99, the “NES, T follicular helper cell gene set” value [7] was 1.85 and the “NES, FXR pathway gene set” value [8] was −1.04. The “NES, PPAR signaling gene set (first listed)” value [8] was −0.88, the “NES, PPAR signaling gene set (second listed)” value [8] was −1.00 and the “NES, PPARα pathway gene set (first listed)” value [8] was −0.62. The “NES, PPARα pathway gene set (second listed)” value [8] was −0.77, the “NES, RAR/RXR pathway gene set” value [8] was −1.49 and the “NES, RXR/VDR pathway gene set” value [8] was −1.71. For the same molecule, the “NES, GW7647 (PPARa agonist) gene set” value (Fibrosis not improved, NASH patients, PPAR agonist on human primary hepatocytes (GSE53399)) was −1.56, the “NES, GW501516 (PPARd agonist) gene set” value [9] was −0.92 and the “NES, ROSIGLITAZONE (PPARg agonist) gene set” value [9] was −1.19. For the same molecule, the “NES, WY14643 (PPARa agonist) gene set” value [9] was 1.17, the “NES, PDGFRB target gene signature” value (Fibrosis not improved, NASH patients, iLINCS) was −0.79 and the “modulation of RXR, RAR and FXR pathways” value (both responders and non-responders) was “no obvious induction”. For the same molecule, the “modulation of FPS genes” value (patients with histological fibrosis improvement) was “suppressed or unchanged”, the “modulation of FPS genes” value (patients with no fibrosis improvement) was “generally induced” and the “modulation of PPAR pathways” value (fibrosis responders after 1-year treatment, non-responders lack it) was “enrichment”. The “modulation of E2F signaling” value (fibrosis responders only) was “most strikingly suppressed” and the “PPAR α target gene signature (vs δ and γ agonist signatures)” value (transcriptional target gene signatures defined in mouse primary hepatocyte) was “dominantly induced”.

— patent publication US20260185169A1, “MOLECULAR SIGNATURES TO PREDICT LONG-TERM LIVER FIBROSIS PROGRESSION” (THE BOARD OF REGENTS OF THE UNIVERSITY OF TEXAS SYSTEM, priority 2022, published 2026)
